The text below walks through data of patent US20250034182A1, “PHOSPHOLIPID COMPOUNDS AND METHODS OF MAKING AND USING THE SAME” (priority 2021, published 2025).

For experiment [1], the system named is Respiratory syncytial virus recombinant with luciferase (RSV-Luc5) in HEp-2 cells. Kind of experiment: HEp-2 RSV-Luc5 384-well assay (EC50 RSVFLUC Hep2-384 v2, Example V). Format: cell-based. Conditions: human respiratory syncytial virus, HEp-2, 72 h, read-out: RSV Hep-2 FLuc EC50 (v2) (nM) (per Ex. V). An outline of the steps: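 HEp-2 cells (4,000/well) infected with RSV-Luc5 at MOI 0.5 in DMEM/10% FBS with compound, 10-point 1:3 dilutions, 3 days at 37 °C. Replication read by One-Glo luminescence, normalized to remdesivir (0%) and DMSO (100%). EC50 from non-linear regression as concentration giving 50% reduction.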

The subject of experiment [2] is Human Rhinovirus 16 (HRV16) in H1-HeLa cells. Briefly: H1-HeLa HRV-CTG EC50, HRV16 (Example Z). Format: cell-based. The note with it: Rhinovirus A, HRV16, 96 h, MOI 0.25, 4 days, Celltiter-Glo, read-out: HRV 16 HELA EC50 (nM) (per Ex. Z). An excerpt:
H1-Hela cell line (ATCC, Manassas, VA, Cat #CRL-1958) was maintained in Dulbecco's […] (DMEM) (Corning, New York, NY, Cat #15-018CM) supplemented with 10% fetal bovine serum (FBS) (Hyclone, Logan, UT, Cat #SH30071-03), and 1× Penicillin-Streptomycin-L-Glutamine (Coming, New York, NY, Cat #30-009-C1). Cells were passaged 2 times per week to maintain sub-confluent densities and were used for experiments at passage 5-30. The Human Rhinovirus 1B (HRV1B) (ATCC, Manassas, VA, Cat #VR-1645), Human Rhinovirus 14 (HRV14) (ATCC, Manassas, VA, Cat #VR-284), and Human Rhinovirus 16 (HRV16) (ATCC, Manassas, VA, Cat #BR-283) was obtained through ATCC. Viral infection was monitored by determining viability of H1-HeLa cells as described below.
Test molecules are prepared in 100% DMSO in 384-well polypropylene plates (Greiner, Monroe, NC, Cat #784201) with 8 compounds per plate in grouped replicates of 4 at 10 serially diluted concentrations (1:3). The serially diluted compounds were transferred to low dead volume Echo plates (Labcyte, Sunnyvale, CA, Cat #LP-0200).
The test compounds were spotted to 384-well assay plates (Greiner, Monroe, NC, Cat #781091) at 200 nL per well using an Echo acoustic dispenser (Labcyte, Sunnyvale, CA). H1-HeLa cells were harvested and suspended in DMEM (supplemented with 2% FBS and 1× Penicillin-Streptomycin-L-Glutamine) and seeded to the pre-spotted assay plates at 5,000 cells per well in 30 μL. HRV1B, HRV14, and HRV16 was diluted in DMEM (supplemented with 2% FBS and 1× Penicillin-Streptomycin-L-Glutamine) at 97.1 million Infectious Units (IU) per mL, 151 million IU per mL and 221 million IU per mL respectively. 10 μL of virus per well was added to the assay plates containing cells and compounds, for an MOI of 0.5, 1.0, and 0.25 respectively. The assay plates were incubated for 4 days at 37° C. and 5% CO2. At the end of incubation, Celltiter-Glo (Promega, Madison, WI, Cat #G7573) was prepared. The assay plates and Celltiter-Glo reagent were equilibrated to room temperature for at least 15 minutes. 40 μL per well of Celltiter-Glo reagent was added and the plates were incubated at room temperature for 15 minutes before reading the luminescence signal on an EnVision multimode plate reader (Perkin Elmer, Waltham, MA). Rupintrivir was used as positive control and DMSO was used as negative control. Values were normalized to the positive and negative controls (as 0% and 100% replication, respectively) and data was fitted using non-linear regression analysis by Gilead's dose response tool. The EC50 value for each compound was defined as the concentration reducing viral replication by 50%.
For orientation: ATP-based viability assays read luminescence as a measure of living cells.

SMILES strings stand for the structures.

The term EC50 denotes the midpoint of the concentration-response curve. As to `CCCCCCCCCCCCCCCCCCCC[C@H](COP(=O)(O)OC[C@@]1(C#N)O[C@@H](c2ccc3c(N)ncnn23)[C@H](O)[C@@H]1O)OCc1cc(F)cc(C#N)c1` [Compound 34, ((2R,3S,4R)-5-(4-aminopyrrolo[2,1-f][1,2,4]triazin-7-yl)-2-cyano-3,4-dihydroxytetrahydrofuran-2-yl)methyl ((R)-2-((3-cyano-5-fluorobenzyl)oxy)docosyl) hydrogen phosphate], the figures for the EC50 in experiment [1] and in experiment [2] were 1890 nM and 316 nM, respectively.

Regarding `CCCCCCCCCCCCCCCCC[C@H](COP(=O)(O)OC[C@@]1(C#N)O[C@@H](c2ccc3c(N)ncnn23)[C@H](O)[C@@H]1O)OCc1cc(F)cc(C#N)c1` [Compound 36, ((2R,3S,4R,5S)-5-(4-aminopyrrolo[2,1-f][1,2,4]triazin-7-yl)-2-cyano-3,4-dihydroxytetrahydrofuran-2-yl)methyl ((R)-2-((3-cyano-5-fluorobenzyl)oxy)nonadecyl) hydrogen phosphate], the EC50 was determined as 353 nM in experiment [1] and 112 nM in experiment [2].

As to `CCCCCCCCCCCCCCCCCC[C@@H](COP(=O)(O)OC[C@@]1(C#N)O[C@@H](c2ccc3c(N)ncnn23)[C@H](O)[C@@H]1O)OCc1cc(F)cc(C#N)c1` [Compound 37, ((2R,3S,4R)-5-(4-aminopyrrolo[2,1-f][1,2,4]triazin-7-yl)-2-cyano-3,4-dihydroxytetrahydrofuran-2-yl)methyl ((S)-2-((3-cyano-5-fluorobenzyl)oxy)icosyl) hydrogen phosphate], the EC50 in experiment [1] turned out to be 1240 nM; in experiment [2], 249 nM.

Regarding `CCCCCCCCCCCCCCCCCCC[C@H](COP(=O)(O)OC[C@@]1(C#N)O[C@@H](c2ccc3c(N)ncnn23)[C@H](O)[C@@H]1O)Oc1ccc(C#N)c(OC(C)C)c1` [Compound 38, ((2R,3S,4R,5S)-5-(4-aminopyrrolo[2,1-f][1,2,4]triazin-7-yl)-2-cyano-3,4-dihydroxytetrahydrofuran-2-yl)methyl ((R)-2-(4-cyano-3-isopropoxyphenoxy)henicosyl) hydrogen phosphate], the EC50 in experiment [1] was found to be 212 nM; in experiment [2] it was 29 nM.

For `CCCCCCCCCCCCCCCCCCC[C@H](COP(=O)(O)OC[C@@]1(C#N)O[C@@H](c2ccc3c(N)ncnn23)[C@H](O)[C@@H]1O)Oc1cc(OC)c(C#N)c(OC)c1` [Compound 39, ((2R,3S,4R,5S)-5-(4-aminopyrrolo[2,1-f][1,2,4]triazin-7-yl)-2-cyano-3,4-dihydroxytetrahydrofuran-2-yl)methyl ((R)-2-(4-cyano-3,5-dimethoxyphenoxy)henicosyl) hydrogen phosphate], the EC50 in experiment [1] stood at 327 nM; in experiment [2], 35 nM.

`CCCCCCCCCCCCCCCCCCOCC(COc1cc(F)cc(C#N)c1)COP(=O)(O)OC[C@@]1(C#N)O[C@@H](c2ccc3c(N)ncnn23)[C@H](O)[C@@H]1O` (stereo partly drawn) [Compound 43, ((2R,3S,4R,5S)-5-(4-aminopyrrolo[2,1-f][1,2,4]triazin-7-yl)-2-cyano-3,4-dihydroxytetrahydrofuran-2-yl)methyl (3-(3-cyano-5-fluorophenoxy)-2-((octadecyloxy)methyl)propyl) hydrogen phosphate]: the EC50 stood at 707 nM in experiment [1] and 53 nM in experiment [2].

Take `CCCCCCCCCCCCCCCCCCCC[C@H](COP(=O)(O)OC[C@@]1(C#N)O[C@@H](c2ccc3c(N)ncnn23)[C@H](O)[C@@H]1O)Oc1cccc(C#N)c1` [Compound 51, ((2R,3S,4R,5S)-5-(4-aminopyrrolo[2,1-f][1,2,4]triazin-7-yl)-2-cyano-3,4-dihydroxytetrahydrofuran-2-yl)methyl ((R)-2-(3-cyanophenoxy)docosyl) hydrogen phosphate]: the EC50 in experiment [1] worked out at 436 nM; in experiment [2] it was 34 nM.

Turning to `CCCCCCCCCCCCCCCCCOC[C@H](COP(=O)(O)OC[C@@]1(C#N)O[C@@H](c2ccc3c(N)ncnn23)[C@H](O)[C@@H]1O)OCc1cc(F)cc(C#N)c1` [Compound 53, ((2R,3S,4R,5S)-5-(4-aminopyrrolo[2,1-f][1,2,4]triazin-7-yl)-2-cyano-3,4-dihydroxytetrahydrofuran-2-yl)methyl ((R)-2-((3-cyano-5-fluorobenzyl)oxy)-3-(heptadecyloxy)propyl) hydrogen phosphate], the EC50 in experiment [1] worked out at 200 nM; in experiment [2], 35 nM.

With `CCCCCCCCCCCCCCCCCCOC[C@H](COP(=O)(O)OC[C@@]1(C#N)O[C@@H](c2ccc3c(N)ncnn23)[C@H](O)[C@@H]1O)OCc1cccc(C#N)n1` [Compound 68, ((2R,3S,4R)-5-(4-aminopyrrolo[2,1-f][1,2,4]triazin-7-yl)-2-cyano-3,4-dihydroxytetrahydrofuran-2-yl)methyl ((R)-2-((6-cyanopyridin-2-yl)methoxy)-3-(octadecyloxy)propyl) hydrogen phosphate], the EC50 was found to be 110 nM in experiment [1] and 20 nM in experiment [2].

Turning to `CCCCCCCCCCCCCCOC[C@H](COP(=O)(O)OC[C@@]1(C#N)O[C@@H](c2ccc3c(N)ncnn23)[C@H](O)[C@@H]1O)Oc1cc(C#N)ccn1` [Compound 69, ((2R,3S,4R)-5-(4-aminopyrrolo[2,1-f][1,2,4]triazin-7-yl)-2-cyano-3,4-dihydroxytetrahydrofuran-2-yl)methyl ((R)-2-((4-cyanopyridin-2-yl)oxy)-3-(tetradecyloxy)propyl) hydrogen phosphate], the figures for the EC50 in experiment [1] and in experiment [2] were 674 nM and 109 nM, respectively.

As for `CCCCCCCCCCCCCCCCCCCC[C@@H](COP(=O)(O)OC[C@@]1(C#N)O[C@@H](c2ccc3c(N)ncnn23)[C@H](O)[C@@H]1O)OCc1cc(F)cc(C#N)c1` [Compound 70, ((2R,3S,4R)-5-(4-aminopyrrolo[2,1-f][1,2,4]triazin-7-yl)-2-cyano-3,4-dihydroxytetrahydrofuran-2-yl)methyl ((S)-2-((3-cyano-5-fluorobenzyl)oxy)docosyl) hydrogen phosphate], the EC50 in experiment [1] is 1770 nM; in experiment [2], 114 nM.

`CCCCCCCCCCCCCCCCCCOC[C@@H](COP(=O)(O)OC[C@@]1(C#N)O[C@@H](c2ccc3c(N)ncnn23)[C@H](O)[C@@H]1O)Oc1ccc(C#N)nc1` [Compound 72, ((2R,3S,4R,5S)-5-(4-aminopyrrolo[2,1-f][1,2,4]triazin-7-yl)-2-cyano-3,4-dihydroxytetrahydrofuran-2-yl)methyl ((S)-2-((6-cyanopyridin-3-yl)oxy)-3-(octadecyloxy)propyl) hydrogen phosphate]: the EC50 in experiment [1] amounted to 45 nM; in experiment [2] it was 3 nM.

Regarding `CCCCCCCCCCCCCCCCCCOC[C@H](COP(=O)(O)OC[C@@]1(C#N)O[C@@H](c2ccc3c(N)ncnn23)[C@H](O)[C@@H]1O)OCc1ccc(C#N)cc1OC` [Compound 73, ((2R,3S,4R)-5-(4-aminopyrrolo[2,1-f][1,2,4]triazin-7-yl)-2-cyano-3,4-dihydroxytetrahydrofuran-2-yl)methyl ((R)-2-((4-cyano-2-methoxybenzyl)oxy)-3-(octadecyloxy)propyl) hydrogen phosphate], the EC50 in experiment [1] came to 104 nM; in experiment [2], 29 nM.

Consider `CCCCCCCCCCCCCCCCC[C@@H](COP(=O)(O)OC[C@@]1(C#N)O[C@@H](c2ccc3c(N)ncnn23)[C@H](O)[C@@H]1O)OCc1cc(F)cc(C#N)c1` [Compound 74, ((2R,3S,4R)-5-(4-aminopyrrolo[2,1-f][1,2,4]triazin-7-yl)-2-cyano-3,4-dihydroxytetrahydrofuran-2-yl)methyl ((S)-2-((3-cyano-5-fluorobenzyl)oxy)nonadecyl) hydrogen phosphate], for which the EC50 in experiment [1] worked out at 782 nM; in experiment [2] it was 49 nM.
